Assays:
Format in all cases: in vivo
[1] = system: motor branches supplying the gastrocnemius muscle (sciatic nerve); assay: Motor nerve conduction velocity in streptozotocin-diabetic rats, sciatic branch to gastrocnemius; conditions: streptozotocin-diabetic male rats; 50 mg/kg daily by gavage for one month, started after one month of diabetes; sciatic notch to knee
Experimental: (§1) Using an analogous method to that described by Cameron et al in Quarterlty Journal of Experimental Physiology, 1989, 74, 917-926, mature male rats were divided into non-diabetic animals (normal control group) and animals rendered diabetic (by administration of streptozotocin (40-45 mg/kg in 20 mmol/l sodium citrate buffer, pH 4.5, i.p.). The diabetic animals were further divided into two groups. After one month, the motor nerve conduction velocities in one of the diabetic groups (diabetic control group 1) were measured in vivo between the sciatic notch and the knee for motor branches supplying the gastrocnemius and tibialis anterior muscles of the calf using the procedures described by Cameron et al (ibid) (further details of the procedures are given in Experimental Neurology, 1986, 92, 757-761). Sensory nerve conduction velocity was also measured for diabetic control group 1 in the saphenous nerve between the groin and ankle (again using the method of Cameron et al (ibid)). The remaining group of diabetic animals was further divided into two groups. One of these groups was given daily 2-ethyl-4-[(2′-(1H-1,2,3,4-tetrazol-5-yl)biphenyl-4-yl)methoxy]quinoline hydrochloride (Compound A; 50 mg/kg) by gavage, the other group remaining untreated (diabetic control group 2). […]

saphenous nerve = assay: Sensory nerve conduction velocity in streptozotocin-diabetic rats, saphenous nerve; conditions: streptozotocin-diabetic male rats; 50 mg/kg daily by gavage for one month, started after one month of diabetes; groin to ankle
Experimental: as §1

[2] = system: motor branches supplying the tibialis anterior muscle (sciatic nerve); assay: Motor nerve conduction velocity in streptozotocin-diabetic rats, sciatic branch to tibialis anterior; conditions: streptozotocin-diabetic male rats; 50 mg/kg daily by gavage for one month, started after one month of diabetes; sciatic notch to knee
Experimental: as §1

## CCc1cc(OCc2ccc(-c3ccccc3-c3nnn[nH]3)cc2)c2ccccc2n1.Cl [Compound A, 2-ethyl-4-[(2′-(1H-1,2,3,4-tetrazol-5-yl)biphenyl-4-yl)methoxy]quinoline hydrochloride]
[1]
  Motor NCV Gastrocnemius: 62.8 ± 0.9 m/s
Saphenous nerve
  Sensory NCV Saphenous: 60.2 ± 1.1 m/s
[2]
  Motor NCV Tibialis Anterior: 60.3 ± 1.2 m/s
